Source: the supplement of paper PMC10307832

Key:
Assay in all cases: relative viability (nuclei count vs DMSO), 5 days (fraction); higher = more cells survive
Palbociclib + Alpelisib = compound: CC(=O)c1c(C)c2cnc(Nc3ccc(N4CCNCC4)cn3)nc2n(C2CCCC2)c1=O [Palbociclib] + Cc1nc(NC(=O)N2CCC[C@H]2C(N)=O)sc1-c1ccnc(C(C)(C)C(F)(F)F)c1 [Alpelisib] (partner 2 µM)
Summary of the method: (§1)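 Lung cancer cell lines, seeded in 1536-well plates, were treated the following day by pin tool with a single drug or with five library-drug doses (not always all listed) in √10 steps on top of a fixed anchor-drug dose. Cells were fixed and nuclei stained in one step after 5 days, and nuclei were counted. Relative viability is the nuclei count for treated wells divided by that for vehicle wells, reported as medians of duplicate plates.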

Palbociclib + Bortezomib = compound: CC(=O)c1c(C)c2cnc(Nc3ccc(N4CCNCC4)cn3)nc2n(C2CCCC2)c1=O [Palbociclib] + CC(C)C[C@H](NC(=O)[C@H](Cc1ccccc1)NC(=O)c1cnccn1)B(O)O [Bortezomib] (partner 0.002 µM)
Summary of the method: as §1

Palbociclib + Linsitinib = compound: CC(=O)c1c(C)c2cnc(Nc3ccc(N4CCNCC4)cn3)nc2n(C2CCCC2)c1=O [Palbociclib] + C[C@]1(O)C[C@@H](c2nc(-c3ccc4ccc(-c5ccccc5)nc4c3)c3c(N)nccn32)C1 [Linsitinib] (partner 1 µM)
Summary of the method: as §1

Palbociclib + Navitoclax = compound: CC(=O)c1c(C)c2cnc(Nc3ccc(N4CCNCC4)cn3)nc2n(C2CCCC2)c1=O [Palbociclib] + CC1(C)CCC(c2ccc(Cl)cc2)=C(CN2CCN(c3ccc(C(=O)NS(=O)(=O)c4ccc(N[C@H](CCN5CCOCC5)CSc5ccccc5)c(S(=O)(=O)C(F)(F)F)c4)cc3)CC2)C1 [Navitoclax] (partner 0.5 µM)
Summary of the method: as §1

Palbociclib + Lapatinib = compound: CC(=O)c1c(C)c2cnc(Nc3ccc(N4CCNCC4)cn3)nc2n(C2CCCC2)c1=O [Palbociclib] + CS(=O)(=O)CCNCc1ccc(-c2ccc3ncnc(Nc4ccc(OCc5cccc(F)c5)c(Cl)c4)c3c2)o1 [Lapatinib] (partner 2 µM)
Summary of the method: as §1

Palbociclib + Foretinib = compound: CC(=O)c1c(C)c2cnc(Nc3ccc(N4CCNCC4)cn3)nc2n(C2CCCC2)c1=O [Palbociclib] + COc1cc2c(Oc3ccc(NC(=O)C4(C(=O)Nc5ccc(F)cc5)CC4)cc3F)ccnc2cc1OCCCN1CCOCC1 [Foretinib] (partner 0.25 µM)
Summary of the method: as §1

Palbociclib + Crizotinib = compound: CC(=O)c1c(C)c2cnc(Nc3ccc(N4CCNCC4)cn3)nc2n(C2CCCC2)c1=O [Palbociclib] + C[C@@H](Oc1cc(-c2cnn(C3CCNCC3)c2)cnc1N)c1c(Cl)ccc(F)c1Cl [Crizotinib] (partner 1 µM)
Summary of the method: as §1

Palbociclib + Olaparib = compound: CC(=O)c1c(C)c2cnc(Nc3ccc(N4CCNCC4)cn3)nc2n(C2CCCC2)c1=O [Palbociclib] + O=C(c1cc(Cc2n[nH]c(=O)c3ccccc23)ccc1F)N1CCN(C(=O)C2CC2)CC1 [Olaparib] (partner 8 µM)
Summary of the method: as §1

Palbociclib + Pictilisib = compound: CC(=O)c1c(C)c2cnc(Nc3ccc(N4CCNCC4)cn3)nc2n(C2CCCC2)c1=O [Palbociclib] + CS(=O)(=O)N1CCN(Cc2cc3nc(-c4cccc5[nH]ncc45)nc(N4CCOCC4)c3s2)CC1 [Pictilisib] (partner 1 µM)
Summary of the method: as §1

Palbociclib = compound: CC(=O)c1c(C)c2cnc(Nc3ccc(N4CCNCC4)cn3)nc2n(C2CCCC2)c1=O [Palbociclib]
Summary of the method: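 Viability here means nuclei in treated wells divided by nuclei in vehicle wells, reported as the median across plates. Only plates with control CV below 25% and at least one doubling passed. Lung cancer cell lines in 1536-well plates were exposed to five √10-spaced library-drug doses for 5 days and counted from 4× Hoechst images in MetaXpress.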

Palbociclib + Dasatinib = compound: CC(=O)c1c(C)c2cnc(Nc3ccc(N4CCNCC4)cn3)nc2n(C2CCCC2)c1=O [Palbociclib] + Cc1nc(Nc2ncc(C(=O)Nc3c(C)cccc3Cl)s2)cc(N2CCN(CCO)CC2)n1 [Dasatinib] (partner 0.075 µM)
Summary of the method: as §1

Palbociclib + Tozasertib = compound: CC(=O)c1c(C)c2cnc(Nc3ccc(N4CCNCC4)cn3)nc2n(C2CCCC2)c1=O [Palbociclib] + Cc1cc(Nc2cc(N3CCN(C)CC3)nc(Sc3ccc(NC(=O)C4CC4)cc3)n2)n[nH]1 [Tozasertib] (partner 0.1 µM)
Summary of the method: as §1

Palbociclib + OSI-027 = compound: CC(=O)c1c(C)c2cnc(Nc3ccc(N4CCNCC4)cn3)nc2n(C2CCCC2)c1=O [Palbociclib] + COc1cccc2cc(-c3nc([C@H]4CC[C@H](C(=O)O)CC4)n4ncnc(N)c34)[nH]c12 [OSI-027] (partner 0.5 µM)
Summary of the method: as §1

Palbociclib + Phenformin = compound: CC(=O)c1c(C)c2cnc(Nc3ccc(N4CCNCC4)cn3)nc2n(C2CCCC2)c1=O [Palbociclib] + N=C(N)NC(=N)NCCc1ccccc1 [Phenformin] (partner 250 µM)
Summary of the method: as §1

Palbociclib + Luminespib = compound: CC(=O)c1c(C)c2cnc(Nc3ccc(N4CCNCC4)cn3)nc2n(C2CCCC2)c1=O [Palbociclib] + CCNC(=O)c1noc(-c2cc(C(C)C)c(O)cc2O)c1-c1ccc(CN2CCOCC2)cc1 [Luminespib] (partner 0.01 µM)
Summary of the method: as §1

EBC-1
relative viability (Palbociclib + Alpelisib; first compound 0.01 µM): 0.786 | relative viability (Palbociclib + Alpelisib; first compound 0.03162 µM): 0.774 | relative viability (Palbociclib + Alpelisib; first compound 0.1 µM): 0.573 | relative viability (Palbociclib + Alpelisib; first compound 0.3162 µM): 0.409 | relative viability (Palbociclib + Alpelisib; first compound 1 µM): 0.184 | relative viability (Palbociclib + Bortezomib; first compound 0.01 µM): 0.468 | relative viability (Palbociclib + Bortezomib; first compound 0.03162 µM): 0.445 | relative viability (Palbociclib + Bortezomib; first compound 0.1 µM): 0.353 | relative viability (Palbociclib + Bortezomib; first compound 0.3162 µM): 0.281 | relative viability (Palbociclib + Bortezomib; first compound 1 µM): 0.193 | relative viability (Palbociclib + Linsitinib; first compound 0.01 µM): 0.923 | relative viability (Palbociclib + Linsitinib; first compound 0.03162 µM): 0.843 | relative viability (Palbociclib + Linsitinib; first compound 0.1 µM): 0.647 | relative viability (Palbociclib + Linsitinib; first compound 0.3162 µM): 0.554 | relative viability (Palbociclib + Linsitinib; first compound 1 µM): 0.293 | relative viability (Palbociclib + Navitoclax; first compound 0.01 µM): 0.363 | relative viability (Palbociclib + Navitoclax; first compound 0.03162 µM): 0.367 | relative viability (Palbociclib + Navitoclax; first compound 0.1 µM): 0.283 | relative viability (Palbociclib + Navitoclax; first compound 0.3162 µM): 0.215 | relative viability (Palbociclib + Navitoclax; first compound 1 µM): 0.195 | relative viability (Palbociclib + Lapatinib; first compound 0.01 µM): 0.221 | relative viability (Palbociclib + Lapatinib; first compound 0.03162 µM): 0.215 | relative viability (Palbociclib + Lapatinib; first compound 0.1 µM): 0.178 | relative viability (Palbociclib + Lapatinib; first compound 0.3162 µM): 0.191 | relative viability (Palbociclib + Lapatinib; first compound 1 µM): 0.192 | relative viability (Palbociclib + Foretinib; first compound 0.01 µM): 0.113 | relative viability (Palbociclib + Foretinib; first compound 0.03162 µM): 0.0957 | relative viability (Palbociclib + Foretinib; first compound 0.1 µM): 0.0957 | relative viability (Palbociclib + Foretinib; first compound 0.3162 µM): 0.0852 | relative viability (Palbociclib + Foretinib; first compound 1 µM): 0.0884 | relative viability (Palbociclib + Crizotinib; first compound 0.01 µM): 0.193 | relative viability (Palbociclib + Crizotinib; first compound 0.03162 µM): 0.165 | relative viability (Palbociclib + Crizotinib; first compound 0.1 µM): 0.195 | relative viability (Palbociclib + Crizotinib; first compound 0.3162 µM): 0.17 | relative viability (Palbociclib + Crizotinib; first compound 1 µM): 0.18 | relative viability (Palbociclib + Olaparib; first compound 0.01 µM): 0.696 | relative viability (Palbociclib + Olaparib; first compound 0.03162 µM): 0.647 | relative viability (Palbociclib + Olaparib; first compound 0.1 µM): 0.452 | relative viability (Palbociclib + Olaparib; first compound 0.3162 µM): 0.514 | relative viability (Palbociclib + Olaparib; first compound 1 µM): 0.241 | relative viability (Palbociclib + Pictilisib; first compound 0.01 µM): 0.366 | relative viability (Palbociclib + Pictilisib; first compound 0.03162 µM): 0.241 | relative viability (Palbociclib + Pictilisib; first compound 0.1 µM): 0.202 | relative viability (Palbociclib + Pictilisib; first compound 0.3162 µM): 0.178 | relative viability (Palbociclib + Pictilisib; first compound 1 µM): 0.183 | relative viability (Palbociclib; 0.01 µM): 1.02 | relative viability (Palbociclib; 0.03162 µM): 0.809 | relative viability (Palbociclib; 0.1 µM): 0.662 | relative viability (Palbociclib; 0.3162 µM): 0.543 | relative viability (Palbociclib; 1 µM): 0.248

NCI-H1623
relative viability (Palbociclib + Dasatinib; first compound 0.01 µM): 0.551 | relative viability (Palbociclib + Dasatinib; first compound 0.03162 µM): 0.473 | relative viability (Palbociclib + Dasatinib; first compound 0.1 µM): 0.517 | relative viability (Palbociclib + Dasatinib; first compound 0.3162 µM): 0.546 | relative viability (Palbociclib + Dasatinib; first compound 1 µM): 0.453 | relative viability (Palbociclib + Tozasertib; first compound 0.01 µM): 0.481 | relative viability (Palbociclib + Tozasertib; first compound 0.03162 µM): 0.48 | relative viability (Palbociclib + Tozasertib; first compound 0.1 µM): 0.476 | relative viability (Palbociclib + Tozasertib; first compound 0.3162 µM): 0.417 | relative viability (Palbociclib + Tozasertib; first compound 1 µM): 0.37 | relative viability (Palbociclib + OSI-027; first compound 0.01 µM): 0.488 | relative viability (Palbociclib + OSI-027; first compound 0.03162 µM): 0.512 | relative viability (Palbociclib + OSI-027; first compound 0.1 µM): 0.448 | relative viability (Palbociclib + OSI-027; first compound 0.3162 µM): 0.398 | relative viability (Palbociclib + OSI-027; first compound 1 µM): 0.364 | relative viability (Palbociclib + Phenformin; first compound 0.01 µM): 0.602 | relative viability (Palbociclib + Phenformin; first compound 0.03162 µM): 0.534 | relative viability (Palbociclib + Phenformin; first compound 0.1 µM): 0.628 | relative viability (Palbociclib + Phenformin; first compound 0.3162 µM): 0.615 | relative viability (Palbociclib + Phenformin; first compound 1 µM): 0.496 | relative viability (Palbociclib + Foretinib; first compound 0.01 µM): 0.97 | relative viability (Palbociclib + Foretinib; first compound 0.03162 µM): 0.741 | relative viability (Palbociclib + Foretinib; first compound 0.1 µM): 0.867 | relative viability (Palbociclib + Foretinib; first compound 0.3162 µM): 0.994 | relative viability (Palbociclib + Foretinib; first compound 1 µM): 0.64 | relative viability (Palbociclib + Luminespib; first compound 0.01 µM): 0.496 | relative viability (Palbociclib + Luminespib; first compound 0.03162 µM): 0.473 | relative viability (Palbociclib + Luminespib; first compound 0.1 µM): 0.587 | relative viability (Palbociclib + Luminespib; first compound 0.3162 µM): 0.463 | relative viability (Palbociclib + Luminespib; first compound 1 µM): 0.463 | relative viability (Palbociclib; 0.01 µM): 1.16 | relative viability (Palbociclib; 0.03162 µM): 0.885 | relative viability (Palbociclib; 0.1 µM): 0.918 | relative viability (Palbociclib; 0.3162 µM): 0.951 | relative viability (Palbociclib; 1 µM): 0.686
